Patent US20200038641A1, “DRUG DELIVERY DEVICE WITH REMOVABLE PODS AND RELATED PODS, METHODS AND SYSTEMS” (priority 2017, published 2020)
Values after ≈ are worked out from the molar mass of the structure shown. Read-outs that look alike come from different tables or passages of the source.

Tests used:
[1] = women, after 7 days of IVR use
Description: The trial consisted of an open-label, crossover design where six participants sequentially used a TDF pod-IVR for seven days followed by a TDF-FTC pod-IVR, with a washout period of at least 14 days between each treatment period. Women who were clinically deemed eligible returned to the clinic for IVR insertion visit (Visit 1, TDF IVR; Visit 5, TDF-FTC IVR) after cessation of menses. Women returned for Visit 2 (TDF IVR) or Visit 6 (TDF-FTC IVR) on Day 2 (±1 d) after IVR insertion and for Visit 3 (TDF IVR) or Visit 7 (TDF-FTC IVR) on Day 7 (±1 d) when the IVRs were removed. At Visit 3/7, vaginal biopsies were obtained, and the IVRs were collected. Tissue samples were ultimately reported as ng/mg or fmol/mg, respectively, following normalization to net biopsy or Dacron swab weight.

[2] = cited from earlier work
[3] = sheep, in vivo
Protocol: FIG. 15 illustrates a graph of cervicovaginal lavage concentration (median+SD) of estonogestrel (1510) and ethiny estradiol (1505) delivered simultaneously via combination pod IVRs over 28 days in sheep (n=3). Inverted triangles: estonogestrel; Diamonds: ethiny estradiol.
FIG. 15 illustrates a graph of ETG-EE release: ETG (1510); EE (1505). The pod-in-rings for this example delivered etonogestrel (ETG) and […]. The silicone pod IVRs contained two pods of EE at 16 mg API per pod (32 mg drug per ring) and ETG at 10 mg API per pod (20 mg drug per ring). Median ETG CVL levels (13±6.9 nM) were 8 times higher than the corresponding […] levels (1.6±1.2 nM), in agreement with the relative daily release rates of ETG and EE from the NuvaRing® (120 μg day^−1 and 15 μg day^−1, respectively). Plasma levels were not measured, the preliminary results should imply a match for in vivo and in vitro release compared to Nuvaring®.

[4] = systemic delivery; cited from earlier work
HSV = experiment: Inhibition of HSV infection by acyclovir, dose-response curve; type: cell-based; settings: drug added at the time of HSV challenge and in the overlay medium; read-out: concentration of acyclovir that inhibits infection by 50% (IC50)
Protocol: The concentration of acyclovir that inhibits infection by 50% (IC50) when drug was added at the time of HSV challenge and in the overlay medium was ˜700 ng/mL.
In FIG. 16, panel A (1605), the percentage inhibition of HSV infection was determined in the presence of increasing concentrations of acyclovir (ACV). In panel B (1610) the percentage inhibition of HSV infection was determined in the presence of the indicated CVL sample or control fluid. Results are means from duplicate wells and each participant is represented by a different symbol (1615); the horizontal lines (1620) indicate the medians for the groups. In panel C (1625), the relationship between drug levels and percentage inhibition was determined by the Spearman correlation coefficient. Filled circles (1630) represent CVL samples obtained 24 h after oral VCV dosing, and open circles (1635) are CVL samples obtained 7 days after ring insertion.

[5] = beyond 190° C.; cited from earlier work

SMILES: CC(Cn1cnc2c(N)ncnc21)OCP(=O)(O)OP(=O)(O)OP(=O)(O)O (stereo in doubt) [TFV-DP, Tenofovir diphosphate]
- vaginal biopsy homogenate tissue levels [1]: high enough for PrEP action

SMILES: C#C[C@]1(O)CC[C@H]2[C@@H]3CCc4cc(O)ccc4[C@H]3CC[C@@]21C [EE, Ethinyl Estradiol]
- solubility in water [2]: highly hydrophobic

SMILES: C#C[C@]1(O)CC[C@H]2[C@@H]3CCC4=CC(=O)CC[C@@H]4[C@H]3C(=C)C[C@@]21CC [ETG, Etonogestrel]
- ETG CVL levels relative to estradiol (E2) levels [3]: 8 times
- solubility in water [2]: highly hydrophobic

SMILES: Nc1nc(=O)n([C@@H]2CS[C@H](CO)O2)cc1F [FTC, Emtricitabine]
- vaginal biopsy homogenate tissue levels [1]: high enough for PrEP action

SMILES: Cc1nc(N(C)C(=O)Cc2ccc(-c3ccccn3)cc2)sc1S(N)(=O)=O [Pritelivir]
- solubility in water [2]: insoluble in water
- solubility in water ([2]; listed as pritelivir): low solubility
- toxicity when delivered systemically [4]: significant toxicity

SMILES: Nc1nc2c(ncn2COCCO)c(=O)[nH]1 [acyclovir]
- IC50 (HSV): ~0.7 µg/mL (≈ 3.11 µM)
- solubility in water [2]: extremely water soluble
- thermal stability [5]: higher thermal stability even beyond 190 °C

SMILES: CCNC(=O)[C@@H]1CCCN1C(=O)[C@H](CCCNC(=N)N)NC(=O)[C@H](CC(C)C)NC(=O)[C@@H](CC(C)C)NC(=O)[C@H](Cc1ccc(O)cc1)NC(=O)[C@H](CO)NC(=O)[C@H](Cc1c[nH]c2ccccc12)NC(=O)[C@H](Cc1c[nH]cn1)NC(=O)[C@@H]1CCC(=O)N1 [leuprolide]
- thermal stability [5]: not heat-stable beyond 190 °C

SMILES: C[C@@H](O)[C@@H]1NC(=O)[C@H](CCCCN)NC(=O)[C@@H](Cc2c[nH]c3ccccc23)NC(=O)[C@H](Cc2ccccc2)NC(=O)[C@@H](NC(=O)[C@H](N)Cc2ccccc2)CSSC[C@@H](C(=O)N[C@H](CO)[C@@H](C)O)NC1=O [octreotide]
- solubility in water [2]: very soluble
